According to ChEMBL document CHEMBL1157152, “Kinetic parameters and recognition of thymidine analogues with varying functional groups by thymidine phosphorylase” (Bioorg Med Chem, 2008):

Legend:
[1] = target: Thymidine phosphorylase (Escherichia coli K-12) (UniProt P07650); assay: Activity of Escherichia coli thymidine phosphorylase assessed as drug phosphorylation after 1 hr; parameters: concentration or dose not given beside the values
[2] = target: Thymidine phosphorylase (Escherichia coli K-12) (UniProt P07650); assay: Activity of Escherichia coli thymidine phosphorylase assessed as drug phosphorylation after 2 hrs; parameters: concentration or dose not given beside the values
[3] = target: Thymidine phosphorylase (Escherichia coli K-12) (UniProt P07650); assay: Activity of 10 U/mL Escherichia coli thymidine phosphorylase assessed as drug phosphorylation after 24 hrs
[4] = target: Thymidine phosphorylase (Escherichia coli K-12) (UniProt P07650); assay: Activity of 10 U/mL Escherichia coli thymidine phosphorylase assessed as drug phosphorylation after 1 week
[5] = target: Thymidine phosphorylase (Escherichia coli K-12) (UniProt P07650); assay: Activity of Escherichia coli thymidine phosphorylase assessed as drug phosphorylation after 24 hrs
[6] = target: Thymidine phosphorylase (Escherichia coli K-12) (UniProt P07650); assay: Activity of 1 U/mL Escherichia coli thymidine phosphorylase assessed as drug phosphorylation after 1 hr

Chain of Thymidine phosphorylase (Escherichia coli K-12) (P07650 whole entry, looked up): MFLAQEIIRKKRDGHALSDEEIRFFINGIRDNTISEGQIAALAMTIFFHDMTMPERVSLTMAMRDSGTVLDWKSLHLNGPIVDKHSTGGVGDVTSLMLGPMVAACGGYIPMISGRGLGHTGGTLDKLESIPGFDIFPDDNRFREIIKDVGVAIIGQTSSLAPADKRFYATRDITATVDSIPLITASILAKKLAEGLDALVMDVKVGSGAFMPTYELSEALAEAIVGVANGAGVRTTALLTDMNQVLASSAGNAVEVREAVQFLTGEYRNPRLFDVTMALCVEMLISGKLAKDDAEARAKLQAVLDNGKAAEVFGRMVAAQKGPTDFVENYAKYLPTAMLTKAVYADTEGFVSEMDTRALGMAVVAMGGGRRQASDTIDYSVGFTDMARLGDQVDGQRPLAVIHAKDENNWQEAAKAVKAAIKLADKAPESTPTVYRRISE

| SMILES | Activity [1] [%] | Activity [2] [%] | Activity [3] [%] | also measured |
| --- | --- | --- | --- | --- |
| Cc1cn([C@H]2C[C@H](O)[C@@H](CN=[N+]=[N-])O2)c(=O)[nH]c1=O | 0 | 0 | – | – |
| Nc1ccn([C@H]2C[C@H](O)[C@@H](CO)O2)c(=O)n1 | – | – | 0 | Activity [4]: 0% |
| Cc1cn([C@H]2C[C@H](O)[C@@H](CI)O2)c(=O)[nH]c1=O | 0 | 0 | – | – |
| Cc1cn([C@H]2C[C@H](O)[C@@H](C)O2)c(=O)[nH]c1=O | 68 | 91 | – | – |
| Cc1cn([C@H]2C[C@H](O)[C@@H](CCl)O2)c(=O)[nH]c1=O | 24 | 70 | – | – |
| Cc1cn([C@@H]2C[C@H](O)[C@@H](CO)O2)c(=O)[nH]c1=O | – | – | 0 | Activity [4]: 0% |
| Cc1cn([C@H]2CC[C@@H](CO)O2)c(=O)[nH]c1=O | 3.2 | 6.1 | – | – |
| Cc1cn([C@H]2C[C@H](O)[C@@H](CS)O2)c(=O)[nH]c1=O | 39 | 90 | – | – |
| Cc1cn([C@H]2C[C@H](O)[C@@H](CN)O2)c(=O)[nH]c1=O | 11 | 36 | – | – |
| Cc1cn([C@H]2C[C@H](O)[C@@H](CO)O2)c(=O)[nH]c1=O | 86 | 86 | – | Activity [5]: 82%; Activity [6]: 86% |
| Cc1cn(COC(CO)CO)c(=O)[nH]c1=O | – | – | 0 | – |
| Cc1cn([C@H]2C[C@H](O)C[C@@H](CO)O2)c(=O)[nH]c1=O | – | – | 0 | – |
| Cc1cnc(=O)n([C@H]2C[C@H](O)[C@@H](CO)O2)c1 | – | – | 0 | Activity [4]: 0% |
| Cc1cn([C@@H]2C[C@H](O)[C@@H](CO)S2)c(=O)[nH]c1=O | – | – | 0 | – |
| O=c1ccn([C@@H]2O[C@H](CO)[C@@H](O)[C@H]2O)c(=O)[nH]1 | 56 | 81 | – | – |
| Cc1nn([C@H]2C[C@H](O)[C@@H](CO)O2)c(=O)[nH]c1=O | – | – | 5.4 | Activity [4]: 7.9% |
| Cc1cn([C@H]2C[C@H](S)[C@@H](CO)O2)c(=O)[nH]c1=O | 0 | 0 | – | – |
| Cc1cn([C@H]2C[C@H](N)[C@@H](CO)O2)c(=O)[nH]c1=O | 0.76 | 1.5 | – | – |
| O=c1ccn([C@H]2C[C@H](O)[C@@H](CO)O2)c(=O)[nH]1 | – | 88 | – | Activity [5]: 83% |
| Cc1cn([C@H]2C[C@H](O)[C@@H](CO)S2)c(=O)[nH]c1=O | – | – | 3.8 | – |
| Cc1cn([C@H]2CC(O)[C@@H](CO)O2)c(=O)[nH]c1=O (single isomer, unassigned) | 0 | 0 | – | – |
